Results on two compounds are retold here after paper PMC4104029, “Mechanism of Action of Compound-13: An α1-Selective Small Molecule Activator of AMPK” (Chemistry & Biology, 2014).

Details of data set [1]: method as in Gómez-Galeno et al., 2010. Particulars: 100 μM for up to 6 hr; ref Gómez-Galeno et al., 2010; cited from earlier work.
The subject of data set [2] is primary mouse hepatocytes. Put plainly: Fatty acid esterification, [3H]palmitic acid incorporation into triglycerides. The data set is classed as cell-based. Particulars: 30 min treatment, then 60 min labeling. Here is the method: Figure 5 C13 Inhibits Lipid Synthesis and Fatty Acid Esterification in Mouse Hepatocytes in an AMPK-Dependent Manner (A) Mouse hepatocytes were treated with the indicated concentrations of C13 and labeled with [1-^14C]acetate for 3 hr. A769662 (100 μM) and AICAR (0.5 mM) were included as positive controls. Rates of fatty acid and sterol synthesis were estimated by incorporation into saponifiable and nonsaponifiable lipids. Results are expressed as the mean acetate incorporated in micromoles per gram-hour ± SD and are representative of two independent experiments. (B) Mouse hepatocytes were treated with the indicated compounds for 30 min and labeled with media containing 0.5 mM palmitic acid (1 mCi⋅mmol^−1 [9,10-^3H]palmitic acid) for an additional 60 min. Incorporation into triglyceride was determined as described in Experimental Procedures and results are expressed as palmitate incorporated in micromoles per gram-hour ± SD and are representative of three independent experiments. […] Results are expressed as percentage WT vehicle and represent the mean ± SD for three independent experiments. […]
Fatty acid esterification was determined by labeling primary hepatocytes with [9,10-^3H(N)]palmitate. […] Lipids were stained with iodine vapor and triglyceride eluted from TLC scrapings with 1:1 ethanol:Triton X-100, and the incorporation of [^3H] was determined by scintillation counting.

The test system of data set [3] is AMPK signaling in mouse primary hepatocytes. The data set can be described thus: AMPK signaling in primary hepatocytes, western blotting. The data set is classed as cell-based. Here is the method:
Figure 4 The C2 Prodrug, C13, Potently Activates AMPK in Mouse Primary Hepatocytes (A) Isolated mouse hepatocytes were incubated with vehicle or the indicated concentrations of C13 for 1 hr. AICAR (0.5 mM) was included as a positive control. Cell lysates were analyzed using western blotting with the indicated antibodies. (B) AMPKα1 or AMPKα2 complexes were immunoprecipitated from hepatocyte extracts prepared as described in (A) and assayed for kinase activity using 0.2 mM AMARA and 0.1 mM ATP. Results are expressed as the mean Pi incorporated in picomoles per minute-milligram ± SD. (C) Hepatocytes were stimulated with 30 μM C13 for the indicated times prior to harvesting, with AICAR (0.5 mM, 1 hr) as positive control. Lysates were analyzed using western blotting with the indicated antibodies. (D) Mouse hepatocytes were treated with the indicated compounds for 1 hr, and adenine nucleotide ratios were determined using capillary electrophoresis of perchloric acid extracts. (E) Mouse hepatocytes were preincubated with 30 μM STO-609 for 30 min prior to stimulation with 30 μM C13 for 1 hr or with 1 μM ionomycin for 30 min. Lysates were analyzed using western blotting with the indicated antibodies. (F) Wild-type (LKB1^+/+) or LKB1-null (LKB1^−/−) mouse embryonic fibroblasts were incubated with the indicated concentrations of C13 for 1 hr. AICAR (2 mM) was included as a positive control. Lysates were analyzed using western blotting with the indicated antibodies. Results are representative of three independent experiments. […]
Isolation of primary hepatocytes. Hepatocytes were isolated from fasted mice by collagenase digestion (Berry and Friend, 1969). Cells were seeded in M199 containing 100 U/ml penicillin G, 100 µg/ml streptomycin, 0.1 % (w/v) BSA, 10 % (v/v) FBS, 10 nM insulin, 200 nM triiodothyronine and 100 nM dexamethasone. Post attachment (3-4 h), cells were cultured overnight in M199 supplemented with antibiotics and 100 nM dexamethasone and used for experiments the following morning.
Western blotting. Cells were stimulated as indicated, rinsed with ice-cold PBS and lysed with 50 mM tris pH 7.5, 1 mM EDTA, 1 mM EGTA, 0.27 M sucrose, 1 % (w/v) Triton X-100, 20 mM glycerol-2-phosphate, 50 mM NaF, 5 mM Na4P2O7, 1 mM Na3VO4, 1 mM DTT, 0.5 mM PMSF, 1 mM benzamidine and 1 µM microcystin-LR. Lysates were clarified at 3000 g for 5 min at 4 °C and normalised using Bradford reagent and BSA as standard. Lysates (20 µg) were denatured in Laemlli buffer, separated on 7.5 % tris-glycine gels and transferred to PVDF in Towbin buffer. Membranes were blocked in 5 % (w/v) milk for 1 h at RT and incubated overnight in the indicated primary antibodies at 4 °C. Membranes were developed using HRP-conjugated antibodies and ECL reagent.
Nucleotide measurements. Cultured hepatocytes were incubated with the indicated compounds and washed with ice-cold 0.9 % (w/v) saline before extraction in 5 % perchloric acid. Precipitated material was removed by centrifugation (13,000 RPM, 3 min) and supernatant neutralised with 1:1 trioctylamine:Freon-113 (Khym, 1975). Nucleotides were separated and quantified by capillary electrophoresis using a Beckman P/ACE instrument as previously described (Hawley, et al., 2010).
(In general: In western blotting, separated proteins are transferred to a membrane and probed.)

SMILES strings stand for the structures.

With `O=P(O)(O)c1ccc(-c2cc(O)on2)o1` [Compound C2, 5-(5-hydroxyl-isoxazol-3-yl)-furan-2-phosphonic acid], the cellular accumulation result in data set [1] is listed as “no significant cellular accumulation”.

Consider `CC(C)C(=O)OCOP(=O)(OCOC(=O)C(C)C)c1ccc(C2=NOC(=O)C2)o1` [Compound C13], for which, in data set [2], the fatty acid esterification entry is given as “inhibited”. In addition, in data set [3] (30 μM), the “time course of Thr172 phosphorylation” value is on record as “continually increased up to 2 hr”; the “time to maximal phosphorylation of downstream targets (ACC, Raptor, and ULK1)” value lay within 45 to 60 min. Moreover, the “insulin-stimulated mTORC1 activation (phosphorylation of p70S6K and 4EBP1)” value in data set [3] (30 µM, 10 mU/ml insulin, 60 min) is on record as “suppressed”. Besides, in data set [3] (1 hr), the “concentration above which Raptor and ULK1 were significantly phosphorylated” value lay within 1 to 3 µM; the “concentration above which phosphorylation of ACC was evident” value lay in the range of 0.03 to 0.1 µM; the “concentration at which ACC phosphorylation appeared saturated” value was 1 to 3 µM; the “concentration at which Thr389 p70S6K1 phosphorylation was suppressed” value is given as “above 1 μM”. Also, the “lowest concentration with elevation of Thr172 phosphorylation” value in data set [3] (1 hr) came out at 10 µM.
